What follows are compounds tested on MOLM13 cells (assay: Growth inhibition of CDK9-positive cell line MOLM13 in vitro (CCK8/MTT assay)). Settings: Homo sapiens, MOLM-13, read-out: IC50 of the compound for inhibiting cell growth, MOLM13 cells.
Format: cell-based, human
Method: 1. MOLM13 cell line and cell culture MOLM13 is a CDK9-positive human acute myeloid leukemia cell line from DMSZ. Suspension culture was carried out in RPMI1640 (Gibco) medium with 10% fetal bovine serum (Gibco), 1% penicillin-streptomycin and 2 mM glutamine.
Suspended MOLM-13 cells in logarithmic growth phase were collected by centrifugation (1700 rpm, 3 minutes), the supernatant was discarded, and the cells were counted. A solution with a cell concentration of 2×10^5 cells per milliliter was formulated and inoculated in a 96-well plate (Corning) with 100 microliters per well. The plate was incubated at 37° C., 5% CO2 overnight. On the next day, the test compound was added to the cultured cells in two parallel wells. […]
The present compound and the control compounds were respectively dissolved in DMSO (Sigma).
When the solvent control well became dark yellow, the OD450 nm absorption value was measured, and the cell growth rate was calculated according to the following formula. Cell growth rate %=100*(T−T0)/(C−T0), wherein T=the optical density value of the drug-treated well—the optical density value of the blank control well, T0=the optical density value of the well before drug treatment—the optical density value of the blank control well, C=the optical density value of the solvent control well—the optical density value of the blank control well. […] The assay was repeated three times, and the data was subjected to a biological statistical analysis.

SMILES	IC50 [nM]
CN1CCN(CCOc2ccc(Nc3nccc(-n4cc(C(N)=O)c5ccccc54)n3)cc2)CC1 [Compound 18, 1-(2-{4-[2-(4-methyl-piperazin-1-yl)-ethoxy]-phenylamino}-pyrimidin-4-yl)-1H-indole-3-carboxamide]	10 to 100

Same assay, conditions: Homo sapiens, MOLM-13; MOLM13 cells, cultured 3 to 6 days, CCK8; read-out: IC50 of the compound for inhibiting cell growth, MOLM13 cells

IC50 [nM]	SMILES
1 to 10	COc1cc(Nc2ncc(Cl)c(-n3cc(C(N)=O)c4ccccc43)n2)ccc1N(C)CCN(C)C [Compound 87, 1-(2-{4-[(2-dimethylamino-ethyl)-methyl-amino]-3-methoxy-phenylamino}-5-chloro-pyrimidin-4-yl)-1H-indole-3-carboxamide]
10 to 100	COc1cc(F)ccc1-c1cc(Nc2cc(CS(C)(=N)=O)ccn2)ncc1F (centres unmarked) [BAY1251125, reference compound]
10 to 100	NC(=O)c1cn(-c2ccnc(Nc3ccc(CN4CCOCC4)cc3)n2)c2ccccc12 [Compound 14, 1-[2-(4-morpholin-4-methyl-phenylamino)-pyrimidin-4-yl]-1H-indole-3-carboxamide]
1 to 10	CN(C)CCN(C)c1ccc(Nc2ncc(F)c(-n3cc(C(N)=O)c4ccccc43)n2)cc1 [Compound 84, 1-(2-{4-[(2-dimethylamino-ethyl)-methyl-amino]-phenylamino}-5-fluoro-pyrimidin-4-yl)-1H-indole-3-carboxamide]
10 to 100	NC(=O)c1cn(-c2nc(Nc3cccc(N4CCN(C(=O)C5CCCC5)CC4)c3)ncc2F)c2ccccc12 [Compound 171]
10 to 100	NC(=O)c1cn(-c2ccnc(Nc3ccc(OCCN4CCOCC4)cc3)n2)c2ccccc12 [Compound 21, 1-{2-[4-(2-morpholin-4-yl-ethoxy)-phenylamino]-pyrimidin-4-yl}-1H-indole-3-carboxamide]
1 to 10	CN(CCN1CCCC1)c1ccc(Nc2ncc(F)c(-n3cc(C(N)=O)c4ccccc43)n2)cc1 [Compound 93, 1-(5-fluoro-2-{4-[methyl-(2-pyrrolidin-1-yl-ethyl)-amino]-phenylamino}-pyrimidin-4-yl)-1H-indole-3-carboxamide]
1 to 10	CN1CCC(N2CCN(c3cccc(Nc4ncc(F)c(-n5cc(C(N)=O)c6ccccc65)n4)c3)CC2)CC1 [Compound 148, 1-(5-fluoro-2-{3-[4-(1-methyl-piperidin-4-yl)-piperazin-1-yl]-phenylamino}-pyrimidin-4-yl)-1H-indole-3-carboxamide]
10 to 100	NC(=O)c1cn(-c2ccnc(Nc3ccc(N4CCOCC4)cc3)n2)c2ccccc12 [Compound 70, 1-[2-(4-morpholin-4-yl-phenylamino)-pyrimidin-4-yl]-1H-indole-3-carboxamide]
1 to 10	COCCN1CCN(c2cccc(Nc3nccc(-n4cc(C(N)=O)c5ccccc54)n3)c2)CC1 [Compound 126, 1-(2-{3-[4-(2-methoxy-ethyl)-piperazin-1-yl]-phenylamino]-pyrimidin-4-yl}-1H-indole-3-carboxamide]
10 to 100	COC1CCN(c2ccc(Nc3nccc(-n4cc(C(N)=O)c5ccccc54)n3)cc2)CC1 [Compound 67, 1-{2-[4-(4-methoxy-piperidin-1-yl)-phenylamino]-pyrimidin-4-yl}-1H-indole-3-carboxamide]
1 to 10	CN1CCN(c2ccc(Nc3ncc(Cl)c(-n4cc(C(N)=O)c5ccccc54)n3)cc2F)CC1 [Compound 61, 1-{5-chloro-2-[3-fluoro-4-(4-methyl-piperazin-1-yl)-phenylamino]-pyrimidin-4-yl}-1H-indole-3-carboxamide]
10 to 100	CCC(=O)N1CCN(c2ccc(Nc3nccc(-n4cc(C(N)=O)c5ccccc54)n3)cc2C)CC1 [Compound 65, 1-{2-[3-methyl-4-(4-propionyl-piperazin-1-yl)-phenylamino]-pyrimidin-4-yl}-1H-indole-3-carboxamide]
1 to 10	NC(=O)c1cn(-c2nc(Nc3ccc(N4CCNCC4)c(F)c3)ncc2Cl)c2ccccc12 [Compound 44, 1-[5-chloro-2-(3-fluoro-4-piperazin-1-yl-phenylamino)-pyrimidin-4-yl]-1H-indole-3-carboxamide]
10 to 100	NC(=O)c1cn(-c2nc(Nc3cccc(N4CCN(CC5CCOCC5)CC4)c3)ncc2F)c2ccccc12 [Compound 157, 1-(5-fluoro-2-{3-[4-(tetrahydro-pyran-4-ylmethyl)-piperazin-1-yl]-phenylamino}-pyrimidin-4-yl)-1H-indole-3-carboxamide]
1 to 10	CC(O)CN1CCN(c2cccc(Nc3ncc(F)c(-n4cc(C(N)=O)c5ccccc54)n3)c2)CC1 (centres unmarked) [Compound 155, 1-(5-fluoro-2-{3-[4-(2-hydroxy-propyl)-piperazin-1-yl]-phenylamino}-pyrimidin-4-yl)-1H-indole-3-carboxamide]
1 to 10	Cc1cc(Nc2ncc(Cl)c(-n3cc(C(N)=O)c4ccccc43)n2)ccc1N(C)CCN1CCCC1 [Compound 97, 1-(5-chloro-2-{3-methyl-4-[methyl-(2-pyrrolidin-1-yl-ethyl)-amino]-phenylamino}-pyrimidin-4-yl)-1H-indole-3-carboxamide]

IC50 [nM]	SMILES
10 to 100	CN1CCN(c2cc(Nc3ncc(Cl)c(-n4cc(C(N)=O)c5ccccc54)n3)ccc2Cl)CC1 [Compound 120, 1-{5-chloro-2-[4-chloro-3-(4-methyl-piperazin-1-yl)-phenylamino]-pyrimidin-4-yl}-1H-indole-3-carboxamide]
10 to 100	CC(=O)N1CCN(c2ccc(Nc3nccc(-n4cc(C(N)=O)c5ccccc54)n3)cc2F)CC1 [Compound 66, 1-{2-[4-(4-acetyl-piperazin-1-yl)-3-fluoro-phenylamino]-pyrimidin-4-yl}-1H-indole-3-carboxamide]
1 to 10	CN1CCN(c2ccc(Nc3nccc(-n4cc(C(N)=O)c5ccccc54)n3)cc2F)CC1 [Compound 46, 1-{2-[3-fluoro-4-(4-methyl-piperazin-1-yl)-phenylamino]-pyrimidin-4-yl}-1H-indole-3-carboxamide]
1 to 10	COc1ccc2c(c1)c(C(N)=O)cn2-c1ccnc(Nc2ccc(N3CCNCC3)cc2)n1 [Compound 33, 5-methoxy-1-[2-(4-piperazin-1-yl-phenylamino)-pyrimidin-4-yl]-1H-indole-3-carboxamide]
10 to 100	NC(=O)c1cn(-c2ccnc(Nc3ccc(N4CCN(CCO)CC4)cc3)n2)c2ccccc12 [Compound 25, 1-(2-{4-[4-(2-hydroxy-ethyl)-piperazin-1-yl]-phenylamino}-pyrimidin-4-yl)-1H-indole-3-carboxamide]
10 to 100	CN1CCN(c2cc(Nc3ncc(F)c(-n4cc(C(N)=O)c5ccccc54)n3)ccc2F)CC1 [Compound 116, 1-{5-fluoro-2-[4-fluoro-3-(4-methyl-piperazin-1-yl)-phenylamino]-pyrimidin-4-yl}-1H-indole-3-carboxamide]
10 to 100	NC(=O)c1cn(-c2ccnc(Nc3ccc(N4CCNCC4)cc3)n2)c2ccc(Br)cc12 [Compound 32, 5-bromo-1-[2-(4-piperazin-1-yl-phenylamino)-pyrimidin-4-yl]-1H-indole-3-carboxamide]
1 to 10	CN1CCN(c2ccc(Nc3ncc(F)c(-n4cc(C(N)=O)c5ccccc54)n3)cc2)CC1 [Compound 52, 1-{5-fluoro-2-[4-(4-methyl-piperazin-1-yl)-phenylamino]-pyrimidin-4-yl}-1H-indole-3-carboxamide]
1 to 10	COc1cc(Nc2nccc(-n3cc(C(N)=O)c4ccccc43)n2)ccc1N(C)CCN1CCCC1 [Compound 91]
1 to 10	Cc1cnc(Nc2cccc(N3CCN(C)CC3)c2)nc1-n1cc(C(N)=O)c2ccccc21 [Compound 124, 1-{5-methyl-2-[3-(4-methyl-piperazin-1-yl)-phenylamino]-pyrimidin-4-yl}-1H-indole-3-carboxamide]
> 1000	NC(=O)c1cn(-c2ccnc(Nc3ccc(F)c([N+](=O)[O-])c3)n2)c2ccccc12 [Compound 6, 1-[2-(4-fluoro-3-nitro-phenylamino)-pyrimidin-4-yl]-1H-indole-3-carboxamide]
1 to 10	Cc1cc(Nc2nccc(-n3cc(C(N)=O)c4ccccc43)n2)ccc1N1CCNCC1 [Compound 28, 1-[2-(3-methyl-4-piperazin-1-yl-phenylamino)-pyrimidin-4-yl]-1H-indole-3-carboxamide]
10 to 100	NC(=O)c1cn(-c2nc(Nc3cccc(N4CCN(C(=O)C5CCOCC5)CC4)c3)ncc2F)c2ccccc12 [Compound 166, 1-(5-Fluoro-2-{3-[4-(tetrahydro-pyran-4-carbonyl)-piperazin-1-yl]-phenylamino}-pyrimidin-4-yl)-1H-indole-3-carboxamide]
1 to 10	CCN1CCN(c2cccc(Nc3ncc(F)c(-n4cc(C(N)=O)c5cc(OCCOC)ccc54)n3)c2)CC1 [Compound 164, 1-{2-[3-(4-ethyl-piperazin-1-yl)-phenylamino]-5-fluoro-pyrimidin-4-yl}-5-(2-methoxy-ethoxy)-1H-indole-3-carboxamide]
10 to 100	CN(C)CCN(C)c1ccc(Nc2nccc(-n3cc(C(N)=O)c4ccccc43)n2)cc1 [Compound 77, 1-(2-{4-[(2-dimethylamino-ethyl)-methyl-amino]-phenylamino}-pyrimidin-4-yl)-1H-indole-3-carboxamide]
10 to 100	CC(=O)N1CCN(CCN(C)c2ccc(Nc3nccc(-n4cc(C(N)=O)c5ccccc54)n3)cc2)CC1 [Compound 74]

SMILES	IC50 [nM]
NC(=O)c1cn(-c2ccnc(Nc3ccccn3)n2)c2ccccc12 [Compound 130, 1-[2-(pyridin-2-ylamino)-pyrimidin-4-yl]-1H-indole-3-carboxamide]	> 1000

Source: patent US20210101881A1 (Ancureall Pharmaceutical (Shanghai) Co., Ltd., priority 2018, published 2021)
